# How the values were obtained:
# Experiment in all cases: microbe, parasite or virus in culture
# Assay type in all cases: cell-based
# Fusarium culmorum = settings: 168 h
# Septoria tritici = settings: Zymoseptoria tritici, 168 h
# Phytophthora infestans = settings: 168 h, read-out: Fungal growth at 31 ppm (%) PHYTIN
Compound,activity at 31 ppm (Fusarium culmorum) [%],activity at 31 ppm (Septoria tritici) [%],activity at 31 ppm (Phytophthora infestans) [%]
"CO/N=C(\C)c1ccnc(/C(C)=N/OCc2c(C)cccc2/C(=N\OC)C(=O)OC)c1 [Example 29, Methyl (2E)-2-methoxyimino-2-[2-[[(E)-1-[4-[(E)-N-methoxy-C-methyl-carbonimidoyl]-2-pyridyl]ethylideneamino]oxymethyl]-3-methyl-phenyl]acetate]",12,0,1
CNC(=O)/C(=N/OC)c1cccc(C)c1CO/N=C(\C)c1cccc(SC)n1 [Example 93],17,13,0
CO/N=C(/C(=O)OC)c1cccc(C)c1CO/N=C(\C)c1cccnc1 [Example 131],,17,0
CNC(=O)/C(=N/OC)c1cccc(C)c1CO/N=C(\C)c1ncccc1C(F)F [Example 33],11,4,14
CO/N=C(/C(=O)OC)c1cccc(C)c1CO/N=C(\C)c1cccc(C(F)F)n1 [Example 9],,4,5
"CO/N=C(/C(=O)OC)c1cccc(C)c1CO/N=C(/c1cc(C(F)(F)F)ccn1)C1CC1 [Example 72, Methyl (2E)-2-[2-[[(E)-[cyclopropyl-[4-(trifluoromethyl)-2-pyridyl]methylene]amino]-oxymethyl]-3-methyl-phenyl]-2-methoxyimino-acetate]",14,4,6
CO/N=C(/C(=O)OC)c1cccc(C)c1CO/N=C(\C)c1cc(C(F)(F)F)nc(C)n1 [Example 57],12,14,2
CNC(=O)/C(=N/OC)c1cccc(C)c1CO/N=C(\C)c1ncsc1C(F)(F)F [Example 41],9,2,0
CO/N=C(/C(=O)OC)c1cccc(C)c1CO/N=C(\C)c1cc(C#N)cc(Cl)n1 [Example 64],,17,21
CNC(=O)/C(=N/OC)c1cccc(C)c1CO/N=C(\C)c1cc(C#N)ccn1 [Example 55],12,8,0
CO/N=C(/C(=O)OC)c1cccc(C)c1CO/N=C(\C)c1cccc(C)n1 [Example 65],,0,1
CNC(=O)/C(=N/OC)c1cccc(C)c1CO/N=C(\C)c1cc(C(F)(F)F)cc(Cl)n1 [Example 43],14,13,9
"CNC(=O)/C(=N/OC)c1cccc(C)c1CO/N=C(/c1cc(C(F)(F)F)ccn1)C1CC1 [Example 70, (2E)-2-[2-[[(E)-[cyclopropyl-[4-(trifluoromethyl)-2-pyridyl]methylene]amino]oxymethyl]-3-methyl-phenyl]-2-methoxyimino-N-methyl-acetamide]",12,0,0
CO/N=C(/C(=O)OC)c1cccc(C)c1CO/N=C(\C)c1ncccc1C(F)F [Example 24],,0,18
CO/N=C(/C(=O)OC)c1cccc(C)c1CO/N=C(\C)c1cnc(Cl)c(Cl)c1 [Example 87],17,1,0
"CNC(=O)/C(=N/OC)c1cccc(C)c1CO/N=C(\C)c1cc(/C(C)=N/OC)ccn1 [Example 30, (2E)-2-Methoxyimino-2-[2-[[(E)-1-[4-[(E)-N-methoxy-C-methyl-carbonimidoyl]-2-pyridyl]ethylideneamino]oxymethyl]-3-methyl-phenyl]-N-methyl-acetamide]",10,2,0
CO/N=C(/C(=O)OC)c1cccc(C)c1CO/N=C(\C)c1ncccc1F [Example 74],,21,0
CO/N=C(/C(=O)OC)c1cccc(C)c1CO/N=C(\C)c1ccnc(SC)c1 [Example 94],15,1,1

Compound,activity at 31 ppm (Fusarium culmorum) [%],activity at 31 ppm (Septoria tritici) [%],activity at 31 ppm (Phytophthora infestans) [%]
"CNC(=O)/C(=N/OC)c1cccc(C)c1CO/N=C(\C)c1cc(C(F)(F)F)ccn1 [Example 5, (2E)-2-methoxyimino-N-methyl-2-[3-methyl-2-[[(E)-1-[4-(trifluoromethyl)-2-pyridyl]-ethylideneamino]oxymethyl]phenyl]acetamide]",8,19,20
CO/N=C(/C(=O)OC)c1cccc(C)c1CO/N=C(\C)c1cc(C)ccn1 [Example 25],,0,0
"CO/N=C(/C(=O)OC)c1cccc(C)c1CO/N=C(\C)c1cc(C(F)(F)F)ccn1 [Example 4, Methyl (2E)-2-methoxyimino-2-[3-methyl-2-[[(E)-1-[4-(trifluoromethyl)-2-pyridyl]ethylideneamino]oxymethyl]phenyl]acetate]",10,11,
CNC(=O)/C(=N/OC)c1cccc(C)c1CO/N=C(\C)c1cnc(Cl)c(Cl)c1 [Example 88],14,9,0
"CO/N=C(/C(=O)OC)c1cccc(C)c1CO/N=C(\C)c1ncccc1C(F)(F)F [Example 27, Methyl (2E)-2-methoxyimino-2-[3-methyl-2-[[(E)-1-[3-(trifluoromethyl)-2-pyridyl]-ethylideneamino]oxymethyl]phenyl]acetate]",,5,
CNC(=O)/C(=N/OC)c1cccc(C)c1CO/N=C(\C)c1cc(C(F)F)ccn1 [Example 37],12,3,0
CO/N=C(\C)c1cccc(/C(C)=N/OCc2c(C)cccc2/C(=N\OC)C(=O)OC)n1 [Example 31],,13,
CO/N=C(/C(=O)OC)c1cccc(C)c1CO/N=C(\C)c1cc(C#N)ccn1 [Example 54],14,4,2
CO/N=C(/C(=O)OC)c1cccc(C)c1CO/N=C(\C)c1cc(C(F)(F)F)cc(C)n1 [Example 46],1,0,0
CNC(=O)/C(=N/OC)c1cccc(C)c1CO/N=C(\C)c1cccc(C(F)(F)F)n1 [Example 2],7,12,18
"CO/N=C(/C(=O)OC)c1cccc(C)c1CO/N=C(\C)c1cc(C(F)(F)F)ncn1 [Example 113, Methyl (2E)-2-methoxyimino-2-[3-methyl-2-[[(E)-1-[6-(trifluoromethyl)pyrimidin-4-yl]ethylideneamino]oxymethyl]phenyl]acetate]",1,0,0
CO/N=C(/C(=O)OC)c1cccc(C)c1CO/N=C(\C)c1ccnc(C(F)(F)F)c1 [Example 47],8,0,0
"CO/N=C(/C(=O)OC)c1cccc(C)c1CO/N=C(\C)c1cnc(C(F)(F)F)cn1 [Example 96, Methyl (2E)-2-methoxyimino-2-[3-methyl-2-[[(E)-1-[5-(trifluoromethyl)pyrazin-2-yl]ethylideneamino]oxymethyl]phenyl]acetate]",13,18,0
"CO/N=C(/C(=O)OC)c1cccc(C)c1CO/N=C(\C)c1cncc(C(F)(F)F)c1 [Example 84, methyl (2E)-2-methoxyimino-2-[3-methyl-2-[[(E)-1-[5-(trifluoromethyl)-3-pyridyl]ethylideneamino]oxymethyl]phenyl]acetate]",12,1,0
CNC(=O)/C(=N/OC)c1cccc(C)c1CO/N=C(\C)c1ncnc(Cl)c1F [Example 108],8,0,0
CNC(=O)/C(=N/OC)c1cccc(C)c1CO/N=C(\C)c1cccc(C(F)F)n1 [Example 10],9,2,0
CO/N=C(/C(=O)OC)c1cccc(C)c1CO/N=C(\C)c1cccc(F)n1 [Example 106],,13,0
CO/N=C(/C(=O)OC)c1cccc(C)c1CO/N=C(\C)c1cc(C(F)F)ccn1 [Example 34],10,0,1

# Reference: patent publication EP3970494A1 (priority 2020, dated 2022)
